Entries after “also recorded” stand apart in the source; their conditions may differ.
Key:
[1] = test system: XIAP plus TAB induced NF-κB activation; experiment: NF-κB reporter in 293-NF-κB-luciferase cells transfected with XIAP plus TAB; format: cell-based; conditions: CID-2858522 4 μM, IKK inhibitor 10 μM
Description: (§1) FIGS. 3 (A-F) HEK293-NF-κB-luc cells were pretreated with CID-2858522 (4 μM), IKK inhibitor, BMS-335541 (10 μM), or PKC inhibitor, Bisindolylmaleimide I (1 μM) for 2 hrs and then transfected with plasmids encoding CD4/TLR4 (A), CD40 (B), NOD1 (C), NOD2 (D), cIAP2-MALT1 (E), or XIAP and TAB (F), or pcDNA as control (compounds were not removed). After 48 hrs, luciferase activity was measured expressing data as fold increase relative to unstimulated cells (mean±SD; n=3). (G-H) HEK293-NF-κB-luc cells were pretreated with CID-2858522 (4 μM), or IKK inhibitor, BMS-335541 (10 μM) for 2 hrs and then cultured with 2 μM doxorubicin (G) or 16 μM retinoic acid (H). After 48 hrs, luciferase activity was measured as above.
(§2) Counter Screening and Secondary Assays. To counter-screen for inhibitors of the TNF pathway, HEK293-NFκB-Luc cells were seeded at 10^5 cells per well in 90 μL medium in white 96-well plates (Greiner Bio-One) and cultured overnight, before adding compounds (5 μL in medium) to cells. After 2 h incubation, 5 μL TNF (200 ng/mL) (R&D Systems) was added (final concentration 10 ng/mL) and cells were incubated for 16 h. Luciferase activity was measured using Britelite kit (Perkin Elmer). To counter-screen for inhibitors of NF-κB induced by TLR4, CD40, NOD1, NOD2, cIAP2/MALT, or XIAP/TAB, the 293-NF-κB-luc cells cultured in 96 well plates as above were pretreated with compounds for 2 h and then transfected using Lipofectamine 2000 with various plasmids including pcDNA3 (“empty vector” control) or plasmids encoding CD4-TLR4, CD40, NOD1, NOD2, cIAP2/MALT, XIAP/TAB, using 0.2 μL of transfection reagent containing 100 ng DNA per well. Cells were cultured in medium containing CID-2858522 or other compounds and luciferase activity was measured 48 h later. […] Reactions were then initiated by addition of 50 μL 160 nM ATP (Sigma) in PBS and luciferase activity was measured 2 h later using a luminometer (LJL Biosystems, Sunnyvale, Calif.).

[2] = test system: cIAP2/MALT oncoprotein induced NF-κB activation; experiment: NF-κB reporter in 293-NF-κB-luciferase cells transfected with cIAP2/MALT; format: cell-based; conditions: CID-2858522 4 μM, IKK inhibitor 10 μM
Description: as §1, §2

[3] = test system: CD4-TLR4 induced NF-κB reporter gene activity; experiment: NF-κB reporter in HEK293-NF-κB-luc cells transfected with CD4-TLR4; format: cell-based; conditions: CID-2858522 4 μM, IKK inhibitor 10 μM, PKC inhibitor 1 μM
Description: as §1
(§3) Counter Screening and Secondary Assays. To counter-screen for inhibitors of the TNF pathway, HEK293-NFκB-Luc cells were seeded at 10^5 cells per well in 90 μL medium in white 96-well plates (Greiner Bio-One) and cultured overnight, before adding compounds (5 μL in medium) to cells. […] Luciferase activity was measured using Britelite kit (Perkin Elmer). […] Cells were cultured in medium containing CID-2858522 or other compounds and luciferase activity was measured 48 h later. […] Reactions were then initiated by addition of 50 μL 160 nM ATP (Sigma) in PBS and luciferase activity was measured 2 h later using a luminometer (LJL Biosystems, Sunnyvale, Calif.).

[4] = test system: NOD1 (NLRC1) induced NF-κB-luciferase reporter gene activity; experiment: NF-κB reporter in HEK293-NF-κB-luc cells over-expressing NOD1; format: cell-based; conditions: CID-2858522 4 μM, IKK inhibitor 10 μM
Description: as §1, §3

[5] = test system: CARMA/MALT1/Bcl-10 complex; experiment: Co-immunoprecipitation of CARMA1/CARMA3 with Bcl-10, MALT, TRAF6, IKKγ, Caspase-8 in transfected HEK293 cells; format: cell-based; conditions: for inhibition of PMA-induced association of CARMA1 or CARMA3 with Bcl-10, MALT, TRAF6, IKKγ, Caspase-8: CID-2858522 4 μM, Bisindolylmaleimide I 1 μM
Description: FIG. 7. CID-285852 inhibits IKKβ phosphorylation induced by PKC activators. (A) HEK293 cells were cultured in 0.5% FBS medium for 24 h and then treated with CID-2858522 (4 μM) or PKC inhibitor, Bisindolylmaleimide I (1 μM) for 2 hrs followed by PMA/Ionomycin (10 ng/mL; 5 ng/mL) for 2 h. Cell lysates were subjected to immunoprecipitation using anti-CARMA1 antibody and analyzed by immunoblotting with anti-phospho-CARMA1 antibody or anti-CARMA1 antibody. (B-E) HEK293 cells were transfected with plasmids encoding myc-CARMA1 in combination with plasmids encoding various other proteins including Caspase-8 (cys287ala) (B), HA-IKK-γ (C), HA-TAK1 (D), and TRAF6 (E). After 36 h. cells were cultured in 0.5% FBS medium for 12 h and then treated with CID-2858522 (4 μM) or Bisindolylmaleimide I (1 μM) for 2 hrs, followed by PMA/Ionomycin treatment (10 ng/mL; 5 ng/mL) for 2 hrs. Cell lysates were immunoprecipated using anti-myc antibody and analyzed by immunoblotting using anti-Caspase8 (B), anti-HA (C,D), or anti-TRAF6 (E) antibodies. (F) HEK293 cells were treated with CID-2858522 (4 μM) or PKC inhibitor (1 μM) followed by PMA/Ionomycin (10 ng/mL; 5 ng/mL) treatment for 2 hrs. Cell lysates were normalized for protein content and analyzed by immunoblotting using anti-FLIP and anti-alpha-tubulin antibodies. […] Cell lysates were immunoprecipitated using anti-IKK-β and analyzed by immunoblotting using anti-phospho-IKK-β antibody or anti-IKK-β antibody (as loading control). Approximate molecular weights of all proteins are indicated in kiloDaltons.
Mapping the site of action of CID-2858522 in the antigen receptor-activated NF-κB pathway. […] To characterize the effects of CID-2858522 on these possible targets of the antigen receptor pathway for NF-κB activation, we first evaluated PMA-induced phosphorylation of Carmal, by phospho-specific antibody immunoblotting, finding no effect of CID-2858522 on this molecular event that initiates formation of the CBM complex (FIG. 7A). […]

PKC-theta = molecular target: T1, PKC-theta (Homo sapiens, UniProt Q04759); experiment: In vitro kinase assay PKC-theta (HTScan kit); format: biochemical; conditions: CID-2858522 up to 8 μM; STS 0.5 μM; PKC inhibitor 1 μM
T1 construct: purchased Cell Signaling, Danvers, Mass
T1 sequence (Q04759 whole entry): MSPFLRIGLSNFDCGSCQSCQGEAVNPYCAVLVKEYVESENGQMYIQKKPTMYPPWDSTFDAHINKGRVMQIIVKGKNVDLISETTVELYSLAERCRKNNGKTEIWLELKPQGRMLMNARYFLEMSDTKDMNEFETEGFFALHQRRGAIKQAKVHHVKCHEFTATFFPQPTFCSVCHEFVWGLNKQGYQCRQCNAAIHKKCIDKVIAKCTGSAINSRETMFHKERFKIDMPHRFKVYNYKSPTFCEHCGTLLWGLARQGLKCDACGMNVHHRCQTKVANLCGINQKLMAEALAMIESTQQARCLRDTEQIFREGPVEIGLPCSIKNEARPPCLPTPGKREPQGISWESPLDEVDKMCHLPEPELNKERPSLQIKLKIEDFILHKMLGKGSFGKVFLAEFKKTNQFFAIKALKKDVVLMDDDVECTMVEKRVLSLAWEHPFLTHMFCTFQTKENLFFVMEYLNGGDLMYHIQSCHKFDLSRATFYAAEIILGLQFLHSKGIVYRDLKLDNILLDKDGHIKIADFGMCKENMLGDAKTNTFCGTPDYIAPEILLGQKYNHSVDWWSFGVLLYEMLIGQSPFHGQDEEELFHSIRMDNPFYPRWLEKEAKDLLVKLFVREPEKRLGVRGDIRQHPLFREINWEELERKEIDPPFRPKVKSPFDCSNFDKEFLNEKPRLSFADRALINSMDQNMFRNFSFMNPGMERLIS
Description: CID-2858522 (8 μM) were tested in in vitro IKK beta (A), PKC beta […] or PKC theta (C) kinase assays using kits. STS (0.5 μM), IKK inhibitor (10 μM) and PKC inhibitor (1 μM) were used as positive controls.
In Vitro Kinase Assays. PKC-beta, PKC-theta and IKK-beta in vitro kinase assays were performed using the HTScan Kinase Assay Kit (Cell Signaling, Danvers, Mass.) according to manufacturer's protocols. A panel of >300 kinases was screened by Ambit, Inc.

Structure (SMILES) | suppression of XIAP plus TAB-driven NF-κB activation [1] | suppression of cIAP2/MALT-driven NF-κB activation [2] | suppression of TLR4 (CD4-TLR4) induced NF-κB reporter [3] | inhibition of NOD1-induced NF-κB reporter [4] | inhibition of PMA-induced association of CARMA1 or CARMA3 with Bcl-10, MALT, TRAF6, IKKγ, Caspase-8 [5] | inhibition of PKC-theta kinase activity (PKC-theta) | suppression of XIAP plus TAB-driven NF-κB activation ([1]; listed as CID-288522) | disruption of CARMA/MALT1/Bcl-10 (CMB) complex formation ([5]; PMA/Ionomycin, cells or lysate) | suppression of cIAP2/MALT-driven NF-κB activation ([2]; listed as CID-288522)
Cc1ccc2nc(NCCN)c3ncc(C)n3c2c1 [BMS-345541, reference compound] | effectively suppressed | effectively suppressed | suppressed | inhibited | – | – | – | – | –
CN(C)CCCn1cc(C2=C(c3c[nH]c4ccccc34)C(=O)NC2=O)c2ccccc21 [Bisindolylmaleimide I, reference compound] | – | – | – | – | inhibited | potent inhibition | – | – | –
Cc1cc2nc(NCCCO)n(CC(=O)c3cc(C(C)(C)C)c(O)c(C(C)(C)C)c3)c2cc1C [Compound 1, 2-(2-(3-Hydroxypropylamino)-5,6-dimethyl-1H-benzo[d]imidazol-1-yl)-1-(3,5-di-tert-butyl-4-hydroxyphenyl)ethanone] | did not inhibit | did not inhibit | did not inhibit; also recorded: not by CID-2858522 | did not inhibit; also recorded: not by CID-2858522 | not by CID-2858522 | failed to suppress | did not | did not disrupt | did not

— patent US20090247520A1, “INHIBITORS OF ANTIGEN RECEPTOR-INDUCED NF-kappa B ACTIVATION” (The Burnham Institute for Medical Research, priority 2008, published 2009)
